Legend:
[1] = The drug is tested on Bifidobacterium breve strain: DSM20213 for biotransformation. The drug concentrations were measured before and after a 12-h incubation by liquid-chromatography-coupled mass spectrometry (LC–MS); conditions: 2 µM
[2] = The drug is tested on Bifidobacterium longum subsp. Infantis strain: CCUG52486 for biotransformation. The drug concentrations were measured before and after a 12-h incubation by liquid-chromatography-coupled mass spectrometry (LC–MS); conditions: 2 µM
[3] = The drug is tested on Collinsella aerofaciens strain: ATCC25986 for biotransformation. The drug concentrations were measured before and after a 12-h incubation by liquid-chromatography-coupled mass spectrometry (LC–MS); conditions: 2 µM
[4] = The drug is tested on Collinsella intestinalis strain: DSM13280 for biotransformation. The drug concentrations were measured before and after a 12-h incubation by liquid-chromatography-coupled mass spectrometry (LC–MS); conditions: 2 µM
[5] = The drug is tested on Alistipes indistinctus strain: DSM22520 for biotransformation. The drug concentrations were measured before and after a 12-h incubation by liquid-chromatography-coupled mass spectrometry (LC–MS); conditions: 2 µM
[6] = The drug is tested on Bacteroides caccae strain: ATCC43185 for biotransformation. The drug concentrations were measured before and after a 12-h incubation by liquid-chromatography-coupled mass spectrometry (LC–MS); conditions: 2 µM
[7] = The drug is tested on Bacteroides dorei strain: DSM17855 for biotransformation. The drug concentrations were measured before and after a 12-h incubation by liquid-chromatography-coupled mass spectrometry (LC–MS); conditions: phocaeicola dorei, 2 µM
[8] = The drug is tested on Bacteroides fragilis strain: HMW610 for biotransformation. The drug concentrations were measured before and after a 12-h incubation by liquid-chromatography-coupled mass spectrometry (LC–MS); conditions: 2 µM
[9] = The drug is tested on Bacteroides fragilis strain: ATCC43859 for biotransformation. The drug concentrations were measured before and after a 12-h incubation by liquid-chromatography-coupled mass spectrometry (LC–MS); conditions: 2 µM
[10] = The drug is tested on Bacteroides pectinophilus strain: ATCC43243 for biotransformation. The drug concentrations were measured before and after a 12-h incubation by liquid-chromatography-coupled mass spectrometry (LC–MS); conditions: 2 µM
[11] = The drug is tested on Bacteroides vulgatus strain: ATCC8482 for biotransformation. The drug concentrations were measured before and after a 12-h incubation by liquid-chromatography-coupled mass spectrometry (LC–MS); conditions: phocaeicola vulgatus, 2 µM
[12] = The drug is tested on Bacteroides xylanisolvens strain: DSM18836 for biotransformation. The drug concentrations were measured before and after a 12-h incubation by liquid-chromatography-coupled mass spectrometry (LC–MS); conditions: 2 µM
[13] = The drug is tested on Parabacteroides merdae strain: ATCC43184 for biotransformation. The drug concentrations were measured before and after a 12-h incubation by liquid-chromatography-coupled mass spectrometry (LC–MS); conditions: 2 µM
[14] = The drug is tested on Anaerococcus hydrogenalis strain: DSM7454 for biotransformation. The drug concentrations were measured before and after a 12-h incubation by liquid-chromatography-coupled mass spectrometry (LC–MS); conditions: 2 µM
[15] = The drug is tested on Anaerotruncus colihominis strain: DSM17241 for biotransformation. The drug concentrations were measured before and after a 12-h incubation by liquid-chromatography-coupled mass spectrometry (LC–MS); conditions: 2 µM
[16] = The drug is tested on Blautia luti strain: DSM14534 for biotransformation. The drug concentrations were measured before and after a 12-h incubation by liquid-chromatography-coupled mass spectrometry (LC–MS); format: ADME; design: dose 2 uM, timepoint 0 vs 12 hours; conditions: 2 µM
[17] = The drug is tested on Clostridium asparagiforme strain: DSM15981 for biotransformation. The drug concentrations were measured before and after a 12-h incubation by liquid-chromatography-coupled mass spectrometry (LC–MS); format: ADME; design: dose 2 uM, timepoint 0 vs 12 hours; conditions: enterocloster asparagiformis, 2 µM
[18] = The drug is tested on Clostridium ramosum strain: DSM1402 for biotransformation. The drug concentrations were measured before and after a 12-h incubation by liquid-chromatography-coupled mass spectrometry (LC–MS); conditions: thomasclavelia ramosa, 2 µM
[19] = The drug is tested on Clostridium scindens strain: ATCC35704 for biotransformation. The drug concentrations were measured before and after a 12-h incubation by liquid-chromatography-coupled mass spectrometry (LC–MS); conditions: 2 µM
[20] = The drug is tested on Clostridium symbiosum strain: ATCC14940 for biotransformation. The drug concentrations were measured before and after a 12-h incubation by liquid-chromatography-coupled mass spectrometry (LC–MS); conditions: 2 µM
[21] = The drug is tested on Coprococcus comes strain: ATCC27758 for biotransformation. The drug concentrations were measured before and after a 12-h incubation by liquid-chromatography-coupled mass spectrometry (LC–MS); format: ADME; design: dose 2 uM, timepoint 0 vs 12 hours; conditions: 2 µM
[22] = The drug is tested on Dorea formicigenerans strain: ATCC27755 for biotransformation. The drug concentrations were measured before and after a 12-h incubation by liquid-chromatography-coupled mass spectrometry (LC–MS); conditions: 2 µM
[23] = The drug is tested on Enterococcus faecalis strain: V583 for biotransformation. The drug concentrations were measured before and after a 12-h incubation by liquid-chromatography-coupled mass spectrometry (LC–MS); conditions: 2 µM
[24] = The drug is tested on Eubacterium ventriosum strain: ATCC27560 for biotransformation. The drug concentrations were measured before and after a 12-h incubation by liquid-chromatography-coupled mass spectrometry (LC–MS); format: ADME; design: dose 2 uM, timepoint 0 vs 12 hours; conditions: 2 µM
[25] = The drug is tested on Ruminococcus gnavus strain: ATCC29149 for biotransformation. The drug concentrations were measured before and after a 12-h incubation by liquid-chromatography-coupled mass spectrometry (LC–MS); conditions: mediterraneibacter gnavus, 2 µM
[26] = The drug is tested on Ruminococcus torques strain: ATCC27756 for biotransformation. The drug concentrations were measured before and after a 12-h incubation by liquid-chromatography-coupled mass spectrometry (LC–MS); format: ADME; design: dose 2 uM, timepoint 0 vs 12 hours; conditions: 2 µM
[27] = The drug is tested on Edwardsiella tarda strain: ATCC23685 for biotransformation. The drug concentrations were measured before and after a 12-h incubation by liquid-chromatography-coupled mass spectrometry (LC–MS); conditions: 2 µM
[28] = The drug is tested on Enterobacter cancerogenus strain: ATCC35316 for biotransformation. The drug concentrations were measured before and after a 12-h incubation by liquid-chromatography-coupled mass spectrometry (LC–MS); conditions: 2 µM
[29] = The drug is tested on Escherichia coli strain: BW25113 for biotransformation. The drug concentrations were measured before and after a 12-h incubation by liquid-chromatography-coupled mass spectrometry (LC–MS); conditions: 2 µM
[30] = The drug is tested on Providencia stuartii strain: ATCC25827 for biotransformation. The drug concentrations were measured before and after a 12-h incubation by liquid-chromatography-coupled mass spectrometry (LC–MS); conditions: 2 µM
[31] = bifidobacterium adolescentis, 12 h, 2 µM
Description: The drug is tested on Bifidobacterium adolescentis strain: ATCC 15703 for biotransformation. The drug concentrations were measured before and after a 12-h incubation by liquid-chromatography-coupled mass spectrometry (LC–MS)

[32] = bacteroides stercoris, 12 h, 2 µM
Description: The drug is tested on Bacteroides stercoris strain: ATCC43183 for biotransformation. The drug concentrations were measured before and after a 12-h incubation by liquid-chromatography-coupled mass spectrometry (LC–MS)

[33] = bacteroides thetaiotaomicron, 12 h, 2 µM
Description: The drug is tested on Bacteroides thetaiotaomicron strain: 3731 for biotransformation. The drug concentrations were measured before and after a 12-h incubation by liquid-chromatography-coupled mass spectrometry (LC–MS)

[34] = parabacteroides distasonis, 12 h, 2 µM
Description: The drug is tested on Parabacteroides distasonis strain: ATCC8503 for biotransformation. The drug concentrations were measured before and after a 12-h incubation by liquid-chromatography-coupled mass spectrometry (LC–MS)

[35] = parabacteroides johnsonii, 12 h, 2 µM
Description: The drug is tested on Parabacteroides johnsonii strain: DSM18315 for biotransformation. The drug concentrations were measured before and after a 12-h incubation by liquid-chromatography-coupled mass spectrometry (LC–MS)

[36] = segatella copri, 12 h, 2 µM
Description: The drug is tested on Prevotella copri strain: DSM18205 for biotransformation. The drug concentrations were measured before and after a 12-h incubation by liquid-chromatography-coupled mass spectrometry (LC–MS)

[37] = anaerostipes sp., 12 h, 2 µM
Description: The drug is tested on Anaerostipes sp. strain: fecal isolate for biotransformation. The drug concentrations were measured before and after a 12-h incubation by liquid-chromatography-coupled mass spectrometry (LC–MS)

[38] = enterocloster bolteae, 12 h, 2 µM
Description: The drug is tested on Clostridium bolteae strain: ATCCBAA-613 for biotransformation. The drug concentrations were measured before and after a 12-h incubation by liquid-chromatography-coupled mass spectrometry (LC–MS)

[39] = limosilactobacillus reuteri cf48-3a, 12 h, 2 µM
Description: The drug is tested on Lactobacillus reuteri CF48-3A strain: BEI HM-102 for biotransformation. The drug concentrations were measured before and after a 12-h incubation by liquid-chromatography-coupled mass spectrometry (LC–MS)

[40] = akkermansia muciniphila, 12 h, 2 µM
Description: The drug is tested on Akkermansia muciniphila strain: ATCC BAA-835 for biotransformation. The drug concentrations were measured before and after a 12-h incubation by liquid-chromatography-coupled mass spectrometry (LC–MS)

Measured: Bacterial Biotransformation

Nc1nc(NC2CC2)c2ncn([C@H]3C=C[C@@H](CO)C3)c2n1.Nc1nc(NC2CC2)c2ncn([C@H]3C=C[C@@H](CO)C3)c2n1.O=S(=O)(O)O [ABACAVIR SULFATE]
Compound NOT metabolized: all assays above

— ChEMBL document CHEMBL5303573, “Mapping human microbiome drug metabolism by gut bacteria and their genes” (Nature, 2019)
